From paper PMC10999558, “Analyzing resistome in soil and Human gut: a study on the characterization and risk evaluation of antimicrobial peptide resistance” (Frontiers in Microbiology, 2024)

What was measured:
Assay type in all cases: cell-based, Escherichia coli
Conditions in all cases: MHB, 37°C, 24 h, triplicate
[1] = system: E. coli BL21(DE3); assay: MIC, broth microdilution, retransformed E. coli BL21(DE3)
Method: (§1) Escherichia coli DH5α, E. coli BL21(DE3), and E. coli JM109 were utilized in this study.
(§2) The MICs were determined using the broth microdilution method in 96-well microtiter plates ([Wiegand et al., 2008]). In brief, a 1:100 dilution of the mid-exponential phase bacterial culture (OD600 = 0.5), consisting of 5 μL (1 × 10^5 CFU/mL), was introduced into polypropylene 96-well plates. These plates contained a two-fold dilution series of AMP in a total volume of 100 μL MHB per well. The incubation of the plates occurred at 37°C in a humidity chamber. The MIC was identified as the lowest concentration that hindered visible bacterial growth after 24 h of incubation. Each experiment was conducted in triplicate.
(§3) Before washing down the colonies, we randomly selected two clones from each plate containing distinct AMP. Colony PCRs were conducted using M13 primer pairs to validate the presence of inserts and determine their sizes. The selected colonies were then subjected to sequencing. The specific details are provided in Supplementary Table S2. Following that, plasmids were isolated using the Plasmid Midiprep Kit (Zomanbio, ZP103) following the manufacturer’s guidelines. After the plasmids were successfully reintroduced into E. coli JM109 and E. coli BL 21(DE3), the MICs of the transformed strains against the AMP used for selection were tested. This testing process was carried out in triplicate.
(§4) Following validation, the colonies displaying resistance underwent additional testing via MIC assessments for the remaining four AMPs that were not employed during the selection process. This experimental procedure was carried out in triplicate.

[2] = system: E. coli DH5α; assay: MIC, broth microdilution, E. coli DH5α carrying pUC118 or resistance-conferring plasmids
Method: as §1, §2, §4

[3] = system: E. coli JM109; assay: MIC, broth microdilution, retransformed E. coli JM109
Method: as §1, §2, §3, §4

Iseganan [IB367] was tested. Which MIC ([1]; colony pUC118-BL21(DE3) (control, no insert)) did it give?
Its MIC is 16 µg/mL.

And the MIC ([1]; colony pUC118-FCST1-BL21(DE3) (feces insert 1 selected against colistin))?
Its MIC is 16 µg/mL.

And the MIC ([1]; colony pUC118-FCST2-BL21(DE3) (feces insert 2 selected against colistin))?
Its MIC is 16 µg/mL.

And the MIC ([1]; colony pUC118-FGQ1-BL21(DE3) (feces insert 1 selected against melittin))?
The MIC was 16 µg/mL.

And the MIC ([1]; colony pUC118-FGQ2- BL21(DE3) (feces insert 2 selected against melittin))?
The MIC was 32 µg/mL.

And the MIC ([1]; colony pUC118-FIB1-BL21(DE3) (feces insert 1 selected against iseganan))?
Its MIC is 32 µg/mL.

What about the MIC ([1]; colony pUC118-FIB2-BL21(DE3) (feces insert 2 selected against iseganan)) of the same substance?
Its MIC is 32 µg/mL.

What about the MIC ([1]; colony pUC118-FPB1-BL21(DE3) (feces insert 1 selected against polymyxin B)) of the same substance?
Its MIC is 32 µg/mL.

What about the MIC ([1]; colony pUC118-FPB2-BL21(DE3) (feces insert 2 selected against polymyxin B)) of the same substance?
The MIC was 16 µg/mL.

And the MIC ([1]; colony pUC118-FSA1-BL21(DE3) (feces insert 1 selected against cathelicidin-DM))?
Its MIC is 16 µg/mL.

And the MIC ([1]; colony pUC118-FSA2-BL21(DE3) (feces insert 2 selected against cathelicidin-DM))?
The MIC was 16 µg/mL.

And the MIC ([1]; colony pUC118-SCST1-BL21(DE3) (soil insert 1 selected against colistin))?
The MIC was 16 µg/mL.

And the MIC ([1]; colony pUC118-SCST2-BL21(DE3) (soil insert 2 selected against colistin))?
Its MIC is 16 µg/mL.

And the MIC ([1]; colony pUC118-SGQ1-BL21(DE3) (soil insert 1 selected against melittin))?
Its MIC is 16 µg/mL.

And the MIC ([1]; colony pUC118-SGQ2-BL21(DE3) (soil insert 2 selected against melittin))?
Its MIC is 16 µg/mL.

And the MIC ([1]; colony pUC118-SIB1-BL21(DE3) (soil insert 1 selected against iseganan))?
The MIC was 32 µg/mL.

And the MIC ([1]; colony pUC118-SIB2-BL21(DE3) (soil insert 2 selected against iseganan))?
The MIC was 32 µg/mL.

What about the MIC ([1]; colony pUC118-SPB1-BL21(DE3) (soil insert 1 selected against polymyxin B)) of the same substance?
Its MIC is 16 µg/mL.

And the MIC ([1]; colony pUC118-SPB2-BL21(DE3) (soil insert 2 selected against polymyxin B))?
Its MIC is 16 µg/mL.

What about the MIC ([1]; colony pUC118-SSA1-BL21(DE3) (soil insert 1 selected against cathelicidin-DM)) of the same substance?
Its MIC is 32 µg/mL.

What about the MIC ([1]; colony pUC118-SSA2-BL21(DE3) (soil insert 2 selected against cathelicidin-DM)) of the same substance?
The MIC was 16 µg/mL.

What about the MIC ([2]; E. coli DH5α containing pUC118 plasmids) of the same substance?
Its MIC is 16 µg/mL.

And the MIC ([2]; colony pUC118-DH5α (control, no insert))?
The MIC was 16 µg/mL.

What about the MIC ([2]; colony pUC118-FCST1-DH5α (feces insert 1 selected against colistin)) of the same substance?
Its MIC is 16 µg/mL.

And the MIC ([2]; colony pUC118-FCST2-DH5α (feces insert 2 selected against colistin))?
The MIC was 16 µg/mL.

What about the MIC ([2]; colony pUC118-FGQ1-DH5α (feces insert 1 selected against melittin)) of the same substance?
Its MIC is 16 µg/mL.

What about the MIC ([2]; colony pUC118-FGQ2-DH5α (feces insert 2 selected against melittin)) of the same substance?
The MIC was 32 µg/mL.

And the MIC ([2]; colony pUC118-FIB1-DH5α (feces insert 1 selected against iseganan))?
Its MIC is 32 µg/mL.

And the MIC ([2]; colony pUC118-FIB2-DH5α (feces insert 2 selected against iseganan))?
The MIC was 32 µg/mL.

And the MIC ([2]; colony pUC118-FPB1-DH5α (feces insert 1 selected against polymyxin B))?
The MIC was 32 µg/mL.

What about the MIC ([2]; colony pUC118-FPB2-DH5α (feces insert 2 selected against polymyxin B)) of the same substance?
Its MIC is 16 µg/mL.

And the MIC ([2]; colony pUC118-FSA1-DH5α (feces insert 1 selected against cathelicidin-DM))?
Its MIC is 16 µg/mL.

And the MIC ([2]; colony pUC118-FSA2-DH5α (feces insert 2 selected against cathelicidin-DM))?
The MIC was 16 µg/mL.

And the MIC ([2]; colony pUC118-SCST1-DH5α (soil insert 1 selected against colistin))?
Its MIC is 16 µg/mL.

And the MIC ([2]; colony pUC118-SCST2-DH5α (soil insert 2 selected against colistin))?
Its MIC is 16 µg/mL.

What about the MIC ([2]; colony pUC118-SGQ1-DH5α (soil insert 1 selected against melittin)) of the same substance?
Its MIC is 16 µg/mL.

And the MIC ([2]; colony pUC118-SGQ2-DH5α (soil insert 2 selected against melittin))?
Its MIC is 16 µg/mL.

What about the MIC ([2]; colony pUC118-SIB1-DH5α (soil insert 1 selected against iseganan)) of the same substance?
Its MIC is 32 µg/mL.

And the MIC ([2]; colony pUC118-SIB2-DH5α (soil insert 2 selected against iseganan))?
Its MIC is 32 µg/mL.

What about the MIC ([2]; colony pUC118-SPB1-DH5α (soil insert 1 selected against polymyxin B)) of the same substance?
The MIC was 16 µg/mL.

And the MIC ([2]; colony pUC118-SPB2-DH5α (soil insert 2 selected against polymyxin B))?
Its MIC is 16 µg/mL.

And the MIC ([2]; colony pUC118-SSA1-DH5α (soil insert 1 selected against cathelicidin-DM))?
Its MIC is 32 µg/mL.

What about the MIC ([2]; colony pUC118-SSA2-DH5α (soil insert 2 selected against cathelicidin-DM)) of the same substance?
The MIC was 32 µg/mL.

And the MIC ([3]; colony pUC118-FCST1-JM109 (feces insert 1 selected against colistin))?
Its MIC is 8 µg/mL.

And the MIC ([3]; colony pUC118-FCST2-JM109 (feces insert 2 selected against colistin))?
The MIC was 8 µg/mL.

And the MIC ([3]; colony pUC118-FGQ1-JM109 (feces insert 1 selected against melittin))?
The MIC was 8 µg/mL.

And the MIC ([3]; colony pUC118-FGQ2-JM109 (feces insert 2 selected against melittin))?
The MIC was 16 µg/mL.

And the MIC ([3]; colony pUC118-FIB1-JM109 (feces insert 1 selected against iseganan))?
The MIC was 16 µg/mL.

What about the MIC ([3]; colony pUC118-FIB2-JM109 (feces insert 2 selected against iseganan)) of the same substance?
The MIC was 32 µg/mL.

What about the MIC ([3]; colony pUC118-FPB1-JM109 (feces insert 1 selected against polymyxin B)) of the same substance?
Its MIC is 32 µg/mL.

What about the MIC ([3]; colony pUC118-FPB2-JM109 (feces insert 2 selected against polymyxin B)) of the same substance?
The MIC was 8 µg/mL.

What about the MIC ([3]; colony pUC118-FSA1-JM109 (feces insert 1 selected against cathelicidin-DM)) of the same substance?
The MIC was 8 µg/mL.

What about the MIC ([3]; colony pUC118-FSA2-JM109 (feces insert 2 selected against cathelicidin-DM)) of the same substance?
Its MIC is 8 µg/mL.

And the MIC ([3]; colony pUC118-JM109 (control, no insert))?
The MIC was 8 µg/mL.

And the MIC ([3]; colony pUC118-SCST1-JM109 (soil insert 1 selected against colistin))?
Its MIC is 8 µg/mL.

And the MIC ([3]; colony pUC118-SCST2-JM109 (soil insert 2 selected against colistin))?
The MIC was 8 µg/mL.

What about the MIC ([3]; colony pUC118-SGQ1-JM109 (soil insert 1 selected against melittin)) of the same substance?
Its MIC is 8 µg/mL.

And the MIC ([3]; colony pUC118-SGQ2-JM109 (soil insert 2 selected against melittin))?
The MIC was 8 µg/mL.

What about the MIC ([3]; colony pUC118-SIB1-JM109 (soil insert 1 selected against iseganan)) of the same substance?
The MIC was 32 µg/mL.

What about the MIC ([3]; colony pUC118-SIB2-JM109 (soil insert 2 selected against iseganan)) of the same substance?
Its MIC is 16 µg/mL.

And the MIC ([3]; colony pUC118-SPB1-JM109 (soil insert 1 selected against polymyxin B))?
The MIC was 8 µg/mL.

What about the MIC ([3]; colony pUC118-SPB2-JM109 (soil insert 2 selected against polymyxin B)) of the same substance?
Its MIC is 8 µg/mL.

And the MIC ([3]; colony pUC118-SSA1-JM109 (soil insert 1 selected against cathelicidin-DM))?
Its MIC is 16 µg/mL.

And the MIC ([3]; colony pUC118-SSA2-JM109 (soil insert 2 selected against cathelicidin-DM))?
The MIC was 16 µg/mL.
